In publication PMC9130233, “An inhibitor of RORγ for chronic pulmonary obstructive disease treatment” (Scientific Reports, 2022):
Where two headings read alike, the source gives them in different places.

Tests used:
[1] = Drug concentrations on day-8 in CS-model mice after 7-day intranasal treatment; type: in vivo; conditions: C57BL/6, mouse, other: intranasal; for concentration at 1 h: CS exposed mice
Procedure: Additionally, after 7-day intranasal treatment with PCCR-1 in the CS-model in mice as described above, blood, BAL fluid and lung tissues were collected on day-8 approximately 1 h after the last treatment dose for estimating the drug concentrations for PK-PD correlation.

human RORγ LBD = biological target: T1, human RORγ LBD (Homo sapiens, UniProt P51449); test: RORγt-LBD co-activator ligand binding TR-FRET assay, human; conditions: n = 15
T1 construct: RORC-LBD region 229-497aa; made in house; host or cells: Escherichia coli BL21-DE3
T1 sequence (P51449 250-518): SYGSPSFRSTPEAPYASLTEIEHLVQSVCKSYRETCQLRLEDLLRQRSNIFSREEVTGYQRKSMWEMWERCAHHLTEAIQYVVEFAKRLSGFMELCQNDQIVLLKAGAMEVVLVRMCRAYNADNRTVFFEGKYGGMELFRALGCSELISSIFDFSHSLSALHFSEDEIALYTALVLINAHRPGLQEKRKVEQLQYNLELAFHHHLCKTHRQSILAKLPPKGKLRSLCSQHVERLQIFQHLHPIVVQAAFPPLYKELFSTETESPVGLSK
Excerpt: To identify small molecule RORγ inhibitors, we conducted in vitro screening using a TR-FRET binding assay to determine the inhibition of RORγ with a series of different compounds. With extensive effort and from hit identification to lead optimization, PCCR-1 was identified[29] (Fig. 1A). Based on the homology of the ligand binding domains (LBD) between different ROR isoforms (hRORα, hRORβ and hRORγ), slight variations have been observed in the LBD regions which possibly lead to differences in competitive binding between the isoforms (Fig. 1B). Simultaneous binding of a tracer and antibody results in an increase in fluorescence resonance energy transfer (FRET), which decreases with displacement of the tracer upon inhibitor binding.
The human and mouse RORγt cDNA clones were obtained from OriGene (MD USA). […] The next day, plate was read on Infinite F500 reader (Magellan Tecan Switzerland). […] The percent activity of each dilution was determined as the ratio of background corrected signal to the background corrected signal of wells receiving only DMSO. IC50 values were determined by fitting percent inhibition data in GraphPad Prism (version-5.01) software.

human RORγ = tested on: T2, human RORγ; test: Dissociation assay, jump dilution method (TR-FRET), human; type: binding
T2 construct: RORC-LBD region 229-497aa; made in house; host or cells: Escherichia coli BL21-DE3
Procedure: To understand the inverse agonist behavior at the molecular level, interaction with the nuclear receptor RORγ was analyzed in binding assays by estimating its dissociation constant (Koff) and half-life (t1/2). The binding of a ligand stabilizes the conformation of the LBD while binding of a cofactor modifies receptor activity. Binding reversibility was evaluated by adding an excess of competing ligand in the FRET assay and evaluating the displacement of the tracer with inhibitor. Binding of the PCCR-1 with the LBD caused reduction in FRET on antibody addition forming a GST (Glutathione S-transferases) tagged RORγ-antibody complex. The dissociation assay was performed using the jump dilution method with PCCR-1 at a concentration showing maximum binding potency or IC90. The dissociation was tested on addition of an excess of a competitive ligand, the tracer.

[2] = tested on: IL-17 from mouse BAL cells; test: Ex vivo IL-17 release, cultured BAL cells from cigarette smoke exposed mice; type: cell-based; conditions: BAL cells from CS exposed mice
Procedure: The effect of PCCR-1 was evaluated ex vivo using BALf cells from an acute cigarette smoke induced animal model. Animals were exposed to cigarette smoke for 7 days and BALf cells were collected and treated with different doses of PCCR-1 under various stimulatory conditions. […] Stimulation by LPS may represent the inflammatory state during a COPD exacerbation, supporting a potential benefit of PCCR-1 in this disease state.
C57BL/6 mice were exposed to as per above mentioned protocol. On 7th day, animals were sacrificed and a tracheal cannula was inserted. Three times via the trachea, 1 mL of plain RPMI medium was instilled and recovered by gentle manual aspiration. The recovered BALf was centrifuged, the cell pellet washed twice and finally re-suspended in 5% FBS- RPMI. Isolated BAL cells were pre-incubated with different concentration of PCCR-1 for 60 min, followed by stimulating with 1 µg/ml soluble mouse anti-CD3 and 3 µg/ml mouse anti-CD28 mAbs and/or 100 ng/ml of LPS and incubated for 24-48 h at 37 °C. The supernatant was used for estimating IL-17 by ELISA.

mPPARγ = test: Nuclear receptors: functional assay, mPPARγ agonism; type: cell-based, mouse; parameters: key: NSE No significant effect; V wk very weak (very low-level agonist activity seen with mPPARγ); conditions: nuclear receptors: functional assays
Excerpt: Based on the homology of the ligand binding domains, 3 different isoforms of ROR (hRORα, hRORβ and hRORγ) are reported. Small variations in the LBD regions possibly lead to differences in competitive binding between the nuclear receptors of the ROR isoforms (Fig. 1b). Similar to the assessment of RORγ binding assay, TR-FRET binding assays were also used to assess the affinity of PCCR-1 for other ROR isoforms. […] This was reconfirmed in cellular functional assays for the selected isoforms and nuclear receptors using Gal4 DBD with luciferase reporter system from Indigo (PA, USA). […] In addition, both cellular agonist and antagonist effects as well as for enzyme activity were evaluated with a known reference compound for each target, using a radiolabeled method (Eurofins Cerep, France, Table 1).

**Q.** What does the source list for `CCn1c(C(C)(C)Oc2ccc(F)cc2F)nc2cc(NC(=O)Cc3ccc(S(=O)(=O)CC)cc3)ccc21` [PCCR-1]?
**A.** concentration at 1 h ([1]; BAL fluid, day-8, intranasal 1 µg/animal, read-out: Total concentration BAL fluid): 25.7 nM; concentration at 1 h ([1]; BAL fluid, day-8, intranasal 10 µg/animal, read-out: Total concentration BAL fluid): 160 nM; concentration at 1 h ([1]; BAL fluid, day-8, intranasal 30 µg/animal, read-out: Total concentration BAL fluid): 390 nM; concentration at 1 h ([1]; BAL fluid, day-8, intranasal 50 µg/animal, read-out: Total concentration BAL fluid): 779 nM; concentration at 1 h ([1]; BAL fluid, day-8, intranasal 100 µg/animal, read-out: Total concentration BAL fluid): 1320 nM; concentration at 1 h ([1]; lung, day-8, intranasal 1 µg/animal, read-out: Total concentration Lung): 5480 nM; concentration at 1 h ([1]; lung, day-8, intranasal 10 µg/animal, read-out: Total concentration Lung): 53600 nM; concentration at 1 h ([1]; lung, day-8, intranasal 30 µg/animal, read-out: Total concentration Lung): 171000 nM; concentration at 1 h ([1]; lung, day-8, intranasal 50 µg/animal, read-out: Total concentration Lung): 379000 nM; concentration at 1 h ([1]; lung, day-8, intranasal 100 µg/animal, read-out: Total concentration Lung): 608000 nM; Kp at 1 h ([1]; lung/plasma, CS-model mice, 7-day intranasal treatment, all tested doses (1 to 100 µg), read-out: concentration in lung as compared to the plasma): > 1000; concentration at 1 h ([1]; plasma, day-8, intranasal 1 µg/animal, read-out: Total concentration Plasma): < 1.85 nM; concentration at 1 h ([1]; plasma, day-8, intranasal 10 µg/animal, read-out: Total concentration Plasma): < 1.85 nM; concentration at 1 h ([1]; plasma, day-8, intranasal 30 µg/animal, read-out: Total concentration Plasma): 20.6 nM; concentration at 1 h ([1]; plasma, day-8, intranasal 50 µg/animal, read-out: Total concentration Plasma): 33.2 nM; concentration at 1 h ([1]; plasma, day-8, intranasal 100 µg/animal, read-out: Total concentration Plasma): 84.7 nM; IC50 (human RORγ LBD): 34.5 nM; dissociation (human RORγ; after 290 min (~ 5 h)): 50%; t1/2 (target residence time) (human RORγ; human RORγ, jump dilution, PCCR-1 at IC90): 4.84 h; absolute dissociation (human RORγ; human, till 3 h of measurement): 50%; IC50 ([2]; LPS induced, read-out: IL-17 IC50, Mouse BAL cells: LPS): 802 nM; IC50 ([2]; anti-CD3 + anti-CD28 induced, read-out: IL-17 IC50, Mouse BAL cells: CD3+CD28): 903 nM; IC50 ([2]; basal, read-out: IL-17 IC50, Mouse BAL cells: Basal): 873 nM; mPPARγ(agonism) (mPPARγ): V wk
